Literature values as cited in patent US20110257145A1, “METHOD OF TREATING NEUROLOGICAL DISEASES” (THE BOARD OF TRUSTEES OF THE UNIVERSITY OF ILLINOIS, priority 2008, published 2011).

Columns and labels:
[1] = molecular target: mouse PKCα (Mus musculus, UniProt P20444); settings: PKC binding, value marked [52]; read-out: K1[nm] ± SEM; cited from earlier work
[2] = tested on: AD double-transgenic mouse; settings: in vivo; cited from earlier work
[3] = tested on: fibroblasts from AD patients; settings: sub-nanomolar concentrations; cited from earlier work

CCC/C=C/C=C/C(=O)O[C@H]1/C(=C/C(=O)OC)C[C@H]2C[C@H]([C@@H](C)O)OC(=O)C[C@H](O)C[C@@H]3C[C@H](OC(C)=O)C(C)(C)[C@](O)(C[C@@H]4C/C(=C/C(=O)OC)C[C@H](/C=C/C(C)(C)[C@]1(O)O2)O4)O3 [Bryostatin 1]
Ki [1]: 1.4 nM
behavioral outcome [2]: improved
brain Aβ40 [2]: decreased
brain Aβ42 [2]: decreased
rate of premature death [2]: ameliorated
secretion of the α-secretase product sAPPα [3]: dramatically enhances
